Assay results reported in paper PMC9462843 (Protein Science : A Publication of the Protein Society, 2022).

Legend:
Type in all cases: biochemical
[1] = target: T1, BsIMPDH (Bacillus subtilis IMPDH) (Bacillus subtilis, UniProt P21879); assay: IMPDH activity assay, guanine nucleotide titration (NADH fluorescence); conditions: for K i,app: 0.25 mM ATP present; for effect on the catalytic activity in vitro: nucleotide alone (no ATP); for IC50: read-out: Estimated IC50
T1 construct: Open reading frames of the different enzymes were amplified by PCR using genomic DNA as template; 8xHis (N, cleaved yes); made in house; host or cells: E. coli BL21 (DE3)
T1 sequence (P21879 whole entry): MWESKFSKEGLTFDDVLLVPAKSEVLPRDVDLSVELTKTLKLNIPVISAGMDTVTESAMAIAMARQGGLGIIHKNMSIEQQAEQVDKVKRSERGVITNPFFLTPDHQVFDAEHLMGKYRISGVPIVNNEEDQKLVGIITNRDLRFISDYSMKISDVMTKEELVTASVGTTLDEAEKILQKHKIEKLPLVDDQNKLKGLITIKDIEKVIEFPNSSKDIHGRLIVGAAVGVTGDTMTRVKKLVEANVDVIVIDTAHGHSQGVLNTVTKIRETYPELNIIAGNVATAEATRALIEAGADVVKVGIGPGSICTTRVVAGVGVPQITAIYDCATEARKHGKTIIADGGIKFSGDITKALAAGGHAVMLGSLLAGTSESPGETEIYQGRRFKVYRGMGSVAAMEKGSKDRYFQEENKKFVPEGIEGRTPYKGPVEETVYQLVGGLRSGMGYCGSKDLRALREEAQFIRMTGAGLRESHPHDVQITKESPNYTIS
Experimental: (§1) IMPDH activity was assayed using 384‐well microtiter plates by monitoring the appearance of NADH by fluorescence (λ exc = 340 nm and λ em = 460 nm, using a 10 nm slit window for both excitation and emission).
(§2) The total amount of MgCl2 was adjusted for each nucleotide concentration to keep 1 mM free Mg^2+ constant concentration, as previously described.[6] The experimental data were fitted to the Michaelis–Menten and allosteric sigmoidal equations using GraphPad Prism (GraphPad Software).

[2] = target: StcIMPDH (Streptomyces coelicolor IMPDH) (Streptomyces coelicolor, UniProt Q9L0I7); assay: as above; conditions: for K i,app: 0.25 mM ATP present; for effect on the catalytic activity in vitro: nucleotide alone (no ATP)
Chain of StcIMPDH (Streptomyces coelicolor IMPDH) (Q9L0I7 entry or part of it): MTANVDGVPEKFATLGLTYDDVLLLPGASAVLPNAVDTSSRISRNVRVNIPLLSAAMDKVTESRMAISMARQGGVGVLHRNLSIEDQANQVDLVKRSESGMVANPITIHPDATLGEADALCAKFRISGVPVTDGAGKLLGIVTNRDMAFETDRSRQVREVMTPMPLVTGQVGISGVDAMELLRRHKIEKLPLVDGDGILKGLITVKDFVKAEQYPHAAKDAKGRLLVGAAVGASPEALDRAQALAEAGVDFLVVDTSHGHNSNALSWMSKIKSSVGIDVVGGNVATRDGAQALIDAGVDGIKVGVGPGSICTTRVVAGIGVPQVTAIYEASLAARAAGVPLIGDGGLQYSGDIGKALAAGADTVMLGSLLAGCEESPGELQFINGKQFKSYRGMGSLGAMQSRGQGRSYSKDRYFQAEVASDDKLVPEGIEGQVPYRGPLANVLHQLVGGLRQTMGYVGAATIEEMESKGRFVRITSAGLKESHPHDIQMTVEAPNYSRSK
Experimental: as §1, §2

[3] = target: T2, PaIMPDH (Pseudomonas aeruginosa IMPDH) (Pseudomonas aeruginosa, UniProt Q9HXM5); assay: as above; conditions: for effect on the catalytic activity in vitro: nucleotide alone (no ATP); for effect in vitro on the activity: even at millimolar concentrations, in presence or absence of ATP
T2 construct: Open reading frames of the different enzymes were amplified by PCR using genomic DNA as template; 8xHis (N, cleaved yes); made in house; host or cells: E. coli BL21 (DE3)
T2 sequence (Q9HXM5 1-489): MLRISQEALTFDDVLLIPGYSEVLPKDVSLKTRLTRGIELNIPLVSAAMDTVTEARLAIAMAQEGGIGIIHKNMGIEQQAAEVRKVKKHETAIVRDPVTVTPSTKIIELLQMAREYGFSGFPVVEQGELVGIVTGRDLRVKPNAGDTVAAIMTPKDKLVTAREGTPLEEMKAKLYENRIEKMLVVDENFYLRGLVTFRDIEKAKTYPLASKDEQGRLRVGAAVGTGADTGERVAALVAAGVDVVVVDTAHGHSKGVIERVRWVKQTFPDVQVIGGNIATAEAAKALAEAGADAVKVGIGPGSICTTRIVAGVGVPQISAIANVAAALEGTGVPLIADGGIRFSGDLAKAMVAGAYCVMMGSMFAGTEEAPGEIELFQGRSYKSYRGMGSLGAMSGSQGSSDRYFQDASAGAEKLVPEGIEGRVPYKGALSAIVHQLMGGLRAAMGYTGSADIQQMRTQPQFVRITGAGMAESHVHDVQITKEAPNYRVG
Experimental: as §1, §2

[4] = target: T3, EcIMPDH (Escherichia coli IMPDH) (Escherichia coli, UniProt P0ADG7); assay: as above; conditions: for effect on the catalytic activity in vitro: nucleotide alone (no ATP); for effect in vitro on the activity: even at millimolar concentrations, in presence or absence of ATP
T3 construct: Open reading frames of the different enzymes were amplified by PCR using genomic DNA as template; 8xHis (N, cleaved yes); made in house; host or cells: E. coli BL21 (DE3)
T3 sequence (P0ADG7 whole entry): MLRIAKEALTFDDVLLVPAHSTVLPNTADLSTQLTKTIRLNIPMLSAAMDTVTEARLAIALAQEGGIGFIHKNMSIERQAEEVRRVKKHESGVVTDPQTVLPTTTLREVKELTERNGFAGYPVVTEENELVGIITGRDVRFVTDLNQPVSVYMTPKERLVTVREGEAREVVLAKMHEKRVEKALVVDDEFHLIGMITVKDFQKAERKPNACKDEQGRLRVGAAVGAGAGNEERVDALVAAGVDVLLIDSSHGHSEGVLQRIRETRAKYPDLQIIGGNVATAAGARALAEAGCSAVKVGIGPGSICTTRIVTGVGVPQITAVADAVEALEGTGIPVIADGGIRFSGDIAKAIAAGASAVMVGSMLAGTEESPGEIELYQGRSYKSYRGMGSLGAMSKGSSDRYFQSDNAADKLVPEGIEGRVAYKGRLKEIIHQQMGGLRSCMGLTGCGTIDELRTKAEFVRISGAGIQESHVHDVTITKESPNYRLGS
Experimental: as §1, §2

[5] = target: T4, PaIMPDH (Pseudomonas aeruginosa, UniProt Q9HXM5); assay: GTP titration curves at physiological ATP concentration (Km shift); conditions: read-out: GTP concentration required to duplicate the Km value, constant 3 mM ATP, 0.5 mM NAD, 32°C
T4 construct: Open reading frames of the different enzymes were amplified by PCR using genomic DNA as template; 8xHis (N, cleaved yes); made in house; host or cells: E. coli BL21 (DE3)
Experimental: as §1
(§3) 32 °C in buffer 100 mM Tr i s-HCl,pH8.0,100 mM KCl, 1 mM DTT, 1 mM free MgCl2, […]

[6] = target: T5, EcIMPDH (Escherichia coli, UniProt P0ADG7); assay: as above; conditions: read-out: GTP concentration needed to duplicate the Km value, constant 3 mM ATP, 0.5 mM NAD, 32°C
T5 construct: Open reading frames of the different enzymes were amplified by PCR using genomic DNA as template; 8xHis (N, cleaved yes); made in house; host or cells: E. coli BL21 (DE3)
T5 sequence (P0ADG7 whole entry): as above
Experimental: as §1, §3

[7] = target: T6, Helicobacter pylori IMPDH (HpIMPDH) (Helicobacter pylori, UniProt P56088); assay: Effects of guanine nucleotides on the catalytic activity of HpIMPDH in vitro; conditions: 0.25 mM ATP + 0.5 mM (p)ppGpp, 32°C (Figure S12)
T6 construct: Open reading frames of the different enzymes were amplified by PCR using genomic DNA as template; 8xHis (N, cleaved yes); made in house; host or cells: E. coli BL21 (DE3)
T6 sequence (P56088 1-481): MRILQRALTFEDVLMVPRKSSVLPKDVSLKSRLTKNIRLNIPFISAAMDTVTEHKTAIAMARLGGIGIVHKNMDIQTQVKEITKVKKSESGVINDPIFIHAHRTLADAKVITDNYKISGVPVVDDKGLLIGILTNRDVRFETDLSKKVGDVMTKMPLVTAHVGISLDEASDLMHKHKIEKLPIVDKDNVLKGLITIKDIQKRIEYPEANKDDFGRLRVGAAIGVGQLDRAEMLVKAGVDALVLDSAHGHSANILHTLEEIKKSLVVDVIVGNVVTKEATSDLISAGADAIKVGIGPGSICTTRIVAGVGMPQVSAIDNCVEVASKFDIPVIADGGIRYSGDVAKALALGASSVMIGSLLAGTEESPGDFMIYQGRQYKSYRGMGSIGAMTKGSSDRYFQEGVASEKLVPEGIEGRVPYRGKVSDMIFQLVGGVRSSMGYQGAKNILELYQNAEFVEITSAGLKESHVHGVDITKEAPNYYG
Experimental: as §1
Supplemental Figure 12. Effects of guanine nucleotides on the catalytic activity of HpIMPDH in vitro.Normalized initialvelocity (V0) values calculated as the V0 in the absence of nucleotides divided by the corresponding values inthe presence of the indicated ones. The experiment was performed at 32 °C in buffer 100 mM Tr i s-HCl, pH 8.0, 100 mM KCl, 1 mM DTT, 1 mM free MgCl2, 50 nM enzyme, 0.5 mM NAD+ […]
Nucleotide concentrations were (from left to right): 0.5 mM
The Vo value used for normalization was 6.83 ± 0.1 nM/sec.
(1 picture or pasted object on this page, not shown here)

| Molecule | K i,app ([1]; BsIMPDH) | effect on the catalytic activity in vitro ([1]; BsIMPDH) | K i,app ([2]; StcIMPDH) | effect on the catalytic activity in vitro ([2]; StcIMPDH) | K i,app ([3]; 0.25 mM ATP present) | effect on the catalytic activity in vitro [3] | K i,app ([4]; 0.25 mM ATP present) | effect on the catalytic activity in vitro [4] | GTP concentration doubling Km [5] [µM] | GTP concentration doubling Km [6] [µM] | inhibition of catalytic activity (potency range) ([1]; BsIMPDH, combined with ATP) | IC50 [1] [µM] | IC50 [2] [µM] | inhibition of catalytic activity (potency range) ([2]; StcIMPDH, combined with ATP) | effect in vitro on the activity [3] | effect in vitro on the activity [4] | effect on catalytic activity of HpIMPDH [7] |
| --- | --- | --- | --- | --- | --- | --- | --- | --- | --- | --- | --- | --- | --- | --- | --- | --- | --- |
| Nc1nc2c(ncn2[C@@H]2O[C@H](COP(=O)(O)OP(=O)(O)O)[C@@H](O)[C@H]2O)c(=O)[nH]1 [GDP] | millimolar range | did not have a significant effect | millimolar range | did not have a significant effect | mid‐micromolar range | did not have a significant effect | mid‐micromolar range | did not have a significant effect | – | – | – | – | – | – | – | – | – |
| Nc1nc2c(ncn2[C@@H]2O[C@H](COP(=O)(O)OP(=O)(O)OP(=O)(O)O)[C@@H](O)[C@H]2O)c(=O)[nH]1 [GTP] | millimolar range | did not have a significant effect | millimolar range | did not have a significant effect | – | did not have a significant effect | – | did not have a significant effect | 800 | 1300 | – | – | – | – | – | – | – |
| Nc1nc2c(ncn2[C@@H]2O[C@H](COP(=O)(O)OP(=O)(O)O)[C@@H](OP(=O)(O)OP(=O)(O)O)[C@H]2O)c(=O)[nH]1 [ppGpp] | – | no significant effect | – | no significant effect | – | no significant effect | – | no significant effect | – | – | low micromolar range | 8.9 ± 0.4 | 2 ± 0.03 | low micromolar range | no detectable effect | no detectable effect | – |
| Nc1nc2c(ncn2[C@@H]2O[C@H](COP(=O)(O)OP(=O)(O)OP(=O)(O)O)[C@@H](OP(=O)(O)OP(=O)(O)O)[C@H]2O)c(=O)[nH]1 [pppGpp] | – | – | – | – | – | – | – | – | – | – | – | 11.4 ± 1.2 | 1.4 ± 0.03 | – | no detectable effect | no detectable effect | – |
| (p)ppGpp | – | – | – | – | – | – | – | – | – | – | – | – | – | – | – | – | allosteric inhibition |
